Source: the NIST ThermoML archive (doi:10.1016/j.tca.2011.08.002)
± gives the expanded uncertainty stated by the source.

Test: xn = mol fraction of the nth substance listed
Settings: 101 kPa, Liquid, Vibrating tube method

C1CCC(NC2CCCCC2)CC1 [N-cyclohexylcyclohexanamine] + CCC(C)O
mass density [kg/m3]
Settings	288.15 K	293.15 K	298.15 K	303.15 K	308.15 K	313.15 K	318.15 K	323.15 K
x2 = 0	915.498 ± 0.23	911.705 ± 0.23	907.923 ± 0.23	904.144 ± 0.23	900.372 ± 0.23	896.608 ± 0.23	892.847 ± 0.23	889.089 ± 0.23
x2 = 0.0996	912.349 ± 0.23	908.493 ± 0.23	904.633 ± 0.23	900.775 ± 0.23	896.914 ± 0.23	893.053 ± 0.23	889.189 ± 0.23	885.321 ± 0.24
x2 = 0.1998	908.349 ± 0.23	904.427 ± 0.23	900.497 ± 0.23	896.561 ± 0.23	892.619 ± 0.23	888.669 ± 0.24	884.706 ± 0.24	880.732 ± 0.24
x2 = 0.3	903.446 ± 0.23	899.455 ± 0.23	895.457 ± 0.24	891.448 ± 0.24	887.426 ± 0.24	883.39 ± 0.24	879.336 ± 0.24	875.264 ± 0.24
x2 = 0.3998	897.469 ± 0.23	893.416 ± 0.24	889.353 ± 0.24	885.272 ± 0.24	881.174 ± 0.24	877.057 ± 0.24	872.915 ± 0.24	868.746 ± 0.24
x2 = 0.5011	889.89 ± 0.23	885.775 ± 0.24	881.646 ± 0.24	877.495 ± 0.24	873.319 ± 0.24	869.116 ± 0.24	864.882 ± 0.24	860.611 ± 0.24
x2 = 0.599	880.802 ± 0.23	876.639 ± 0.24	872.452 ± 0.24	868.239 ± 0.24	863.994 ± 0.24	859.715 ± 0.24	855.394 ± 0.24	851.029 ± 0.24
x2 = 0.6999	869.241 ± 0.24	865.057 ± 0.24	860.838 ± 0.24	856.586 ± 0.24	852.289 ± 0.24	847.947 ± 0.24	843.552 ± 0.24	839.101 ± 0.24
x2 = 0.7998	854.484 ± 0.24	850.31 ± 0.24	846.088 ± 0.24	841.819 ± 0.24	837.495 ± 0.24	833.106 ± 0.24	828.652 ± 0.24	824.126 ± 0.25
x2 = 0.8996	835.606 ± 0.24	831.493 ± 0.24	827.317 ± 0.24	823.072 ± 0.24	818.755 ± 0.24	814.354 ± 0.24	809.861 ± 0.24	805.292 ± 0.25
x2 = 0.9494	823.99 ± 0.24	819.925 ± 0.24	815.784 ± 0.24	811.566 ± 0.24	807.262 ± 0.25	802.87 ± 0.25	798.377 ± 0.25	793.784 ± 0.25
